Data as given in ChEMBL document CHEMBL5523703, “Modulators for palmitoylation of proteins and small molecules” (Eur J Med Chem, 2024).
pIC50, pKi: −log10 of the molar value. One block for each compound: values may come before it.

Key:
[1] = target: Acyl-protein thioesterase 2 (Homo sapiens, UniProt O95372); test: Inhibition of APT2 (unknown origin)
[2] = cells; conditions: Homo sapiens, HEK-293T, 24 h
[3] = Inhibition of Wnt/beta-catenin signalling in HEK293 cells assessed as reduction in luciferase activity incubated for 24 hrs by TOPFlash luciferase reporter assay; type: cell-based; conditions: Homo sapiens, HEK293, 24 h
[4] = Inhibition of SPT (unknown origin); design: species or system Homo sapiens
[5] = Inhibition of Wnt/beta-catenin signalling in Wnt3a stimulated HEK293 cells assessed as reduction in luciferase activity incubated for 24 hrs by TOPFlash luciferase reporter assay; type: cell-based; conditions: Homo sapiens, HEK293, 24 h
[6] = target: Serine palmitoyltransferase 3 (Homo sapiens, UniProt Q9NUV7); test: Inhibition of SPTLC3 (unknown origin)
Chain of Serine palmitoyltransferase 3 (Q9NUV7 whole entry): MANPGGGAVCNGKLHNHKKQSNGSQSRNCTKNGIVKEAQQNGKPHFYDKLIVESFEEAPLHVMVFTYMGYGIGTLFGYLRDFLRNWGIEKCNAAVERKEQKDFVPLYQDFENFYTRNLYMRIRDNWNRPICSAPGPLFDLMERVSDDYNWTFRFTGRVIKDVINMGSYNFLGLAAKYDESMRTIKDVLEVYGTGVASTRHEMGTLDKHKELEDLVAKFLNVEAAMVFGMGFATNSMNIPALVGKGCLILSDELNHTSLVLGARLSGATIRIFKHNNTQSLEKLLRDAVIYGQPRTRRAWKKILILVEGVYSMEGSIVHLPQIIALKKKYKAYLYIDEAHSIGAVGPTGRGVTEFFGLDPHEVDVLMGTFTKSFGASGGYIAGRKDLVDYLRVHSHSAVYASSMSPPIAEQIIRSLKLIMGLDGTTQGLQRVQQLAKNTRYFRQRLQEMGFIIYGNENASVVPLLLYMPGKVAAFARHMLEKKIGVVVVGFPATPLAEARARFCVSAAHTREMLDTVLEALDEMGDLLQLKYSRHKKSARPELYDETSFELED

[7] = target: T1, Palmitoyl-protein thioesterase ABHD10, mitochondrial (Homo sapiens, UniProt Q9NUJ1); test: Inhibition of ABHD10 (unknown origin)
T1 sequence (Q9NUJ1 whole entry): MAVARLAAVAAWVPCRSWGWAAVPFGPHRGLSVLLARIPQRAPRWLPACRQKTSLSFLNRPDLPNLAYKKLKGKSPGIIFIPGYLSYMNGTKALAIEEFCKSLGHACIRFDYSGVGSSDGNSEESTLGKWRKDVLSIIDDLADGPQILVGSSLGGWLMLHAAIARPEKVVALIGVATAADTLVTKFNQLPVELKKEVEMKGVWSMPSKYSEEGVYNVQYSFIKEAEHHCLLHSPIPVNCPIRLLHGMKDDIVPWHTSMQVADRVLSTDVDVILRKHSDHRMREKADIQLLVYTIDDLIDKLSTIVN

[8] = organism: Homo sapiens; test: Inhibition of ZDHHC (unknown origin) at 20 uM relative to control
[9] = target: T2, Membrane-bound ghrelin O-acyltransferase MBOAT4 (Homo sapiens, UniProt Q96T53); test: Inhibition of GOAT (unknown origin)
T2 sequence (Q96T53 whole entry): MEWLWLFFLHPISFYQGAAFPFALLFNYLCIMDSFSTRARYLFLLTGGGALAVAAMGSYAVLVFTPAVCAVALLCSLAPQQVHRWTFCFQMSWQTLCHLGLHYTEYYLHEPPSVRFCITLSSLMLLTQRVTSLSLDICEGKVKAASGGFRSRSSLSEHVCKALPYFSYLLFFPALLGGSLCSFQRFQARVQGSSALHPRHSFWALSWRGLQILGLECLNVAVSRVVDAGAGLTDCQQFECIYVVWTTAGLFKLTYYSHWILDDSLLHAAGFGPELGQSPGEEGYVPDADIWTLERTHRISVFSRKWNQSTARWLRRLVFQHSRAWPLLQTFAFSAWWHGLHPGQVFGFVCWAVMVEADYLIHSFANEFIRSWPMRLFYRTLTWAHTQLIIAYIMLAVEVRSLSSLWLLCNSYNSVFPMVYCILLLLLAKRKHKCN

[10] = target: Palmitoyltransferase ZDHHC9 (Homo sapiens, UniProt Q9Y397); test: Binding affinity to ZDHHC9 (unknown origin) assessed as inhibition constant
Chain of Palmitoyltransferase ZDHHC9 (Q9Y397 whole entry): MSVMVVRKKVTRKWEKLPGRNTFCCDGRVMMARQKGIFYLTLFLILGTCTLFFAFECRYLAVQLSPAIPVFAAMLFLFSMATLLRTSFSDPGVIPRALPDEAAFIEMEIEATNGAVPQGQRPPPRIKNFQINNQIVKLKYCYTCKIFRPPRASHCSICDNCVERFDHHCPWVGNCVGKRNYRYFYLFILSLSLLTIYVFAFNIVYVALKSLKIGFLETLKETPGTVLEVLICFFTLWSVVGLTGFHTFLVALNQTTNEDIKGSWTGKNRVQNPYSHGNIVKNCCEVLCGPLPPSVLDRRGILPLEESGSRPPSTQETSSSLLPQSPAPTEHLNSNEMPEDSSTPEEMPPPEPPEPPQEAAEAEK

Chain of Acyl-protein thioesterase 2 (O95372 whole entry): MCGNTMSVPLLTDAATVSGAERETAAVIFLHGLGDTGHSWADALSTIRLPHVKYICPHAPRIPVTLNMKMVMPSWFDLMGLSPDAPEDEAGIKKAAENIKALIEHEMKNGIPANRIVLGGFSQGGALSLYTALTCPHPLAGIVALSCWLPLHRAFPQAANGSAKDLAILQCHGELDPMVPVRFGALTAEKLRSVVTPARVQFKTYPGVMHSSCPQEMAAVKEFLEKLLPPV

Compound: C#CCCCCCCCC[C@@H]1OC(=O)[C@H]1CCCCS(=O)(=O)CCCN(C)C
- pIC50 [1]: 7.49

Compound: CCCCCC[C@@H](O)CCCCCCCCC[C@H](CO)C(=O)O
- pIC50 [4]: 7.62

Compound: C=CC(=O)N(C)CCCCCCCCCCCCCC
- inhibition [8]: 67.3%

Compound: CCCCCCCCCC[C@@H]1OC(=O)[C@H]1CCCCS(=O)(=O)CCCN(C)C
- pIC50 [1]: 7.43

Compound: CCCCCCCCCC[C@@H]1C(=O)O[C@H]1CCc1ccc(OC)c(OC)c1 [PALMOSTATIN B]
- pIC50 [1]: 7.71

Compound: CCCCCC[C@@H](O)CCCCCC/C=C/[C@H](O)[C@@H](O)[C@H](O)[C@H](N)C(=O)O
- pIC50 [4]: 7.70

Compound: C#CCCCN(C)CCCS(=O)(=O)CCCC[C@@H]1C(=O)O[C@H]1CCCCCCCCCC
- pIC50 [1]: 7.19

Compound: CC(C)CCCC(=O)CCCCCCC(=O)CCN(O)C(=O)[C@@H](N)CO
- pIC50 [4]: 7.68

Compound: CCCCCC[C@@H](O)CCCCCCCC[C@@H](O)[C@H](N)C(=O)O
- pIC50 [4]: 6.65

Next, values leading:

- pIC50 [2]: 9.70
Compound: Cc1cc(-c2ncc(CC(=O)Nc3ccc(-c4cnccn4)cn3)cc2C)ccn1 [WNT-974]

- pIC50 [3]: 7.82
Compound: Cc1ccc2nc(NC(=O)CSc3nc4c(c(=O)n3C)SC(C)C4)sc2c1 (configuration not stated)

- pIC50 [5]: 9.30
Compound: C[C@H](C(=O)Nc1ccc(-c2ccsc2)cc1)n1cnc2c1c(=O)n(C)c(=O)n2C

- pIC50 [6]: 8.40
Compound: COc1ccc(C(=O)N2CC[C@H](NC(=O)c3ccccc3Cl)c3c2cnn3C(C)C)cc1OC

- pIC50 [7]: 7.00
Compound: COc1ccc([C@@]23Oc4cc(OC)cc(OC)c4[C@]2(O)[C@@H]2OC(=O)[C@@H]2[C@H]3c2ccccc2)cc1

- pIC50 [7]: 6.68
Compound: CC[C@@]1(c2cccc(C)c2)C(=O)N(C(=O)OC)N1C(=O)OC

- pIC50 [2]: 10.19
Compound: Cc1c(-c2ccnc(C(F)(F)F)c2)ncn1CC(=O)Nc1ccc(-c2cnccn2)cn1 [ZAMAPORVINT]

- pIC50 [3]: 7.55
Compound: Cc1ccc2nc(NC(=O)CSc3nc4c(c(=O)n3-c3ccccc3)SCC4)sc2c1

- pIC50 [9]: 5.82
Compound: CCCCCCCC(C)(O)/C=C/[C@H](NC(=O)OCc1ccccc1)C(=O)OC (some centres not stated)

- pIC50 [3]: 7.24
Compound: COc1ccc(-n2nc(C(=O)NCC(=O)Nc3nc4ccc(OC)cc4s3)c3ccccc3c2=O)cc1

- pIC50 [9]: 6.77
Compound: Cc1nc(N)c2c(CCc3ccc(C(=O)O)cc3)coc2n1

- pKi [10]: 4.18
Compound: CC(C)Cc1ccc(C(C)CN2CCN(CCCC[C@H]3CNCCN3CCc3cc(C(F)(F)F)cc(C(F)(F)F)c3)C[C@@H]2Cc2ccc(O)cc2)cc1 (some centres not stated)

- pIC50 [1]: 7.62
Compound: C#CCCCCCCCC[C@@H]1C(=O)O[C@H]1CCc1ccc(OC)c(OC)c1
